Experimental findings from article PMC12362764, “Novel Cyano‐Artemisinin Dimer ZQJ29 Targets PARP1 to Induce Ferroptosis in Pancreatic Cancer Treatment” (Advanced Science, 2025) are described below.

Data set [1] has as its system PANC-1 and KP4 cells. As to the kind of experiment: Ferroptosis markers (lipid ROS, iron, MDA, GSH). The format is cell-based. As to conditions: 0, 1, 2.5, 5 µM, 24 h of ZQJ29 treatment.
For a further data set, the system named is PANC-1. Nature of the data set: CCK-8 cytotoxicity assay, PANC-1. The format is cell-based. How it is done:
(§1) Cell viability was evaluated using the Cell Counting Kit‐8 (Beyotime, Shanghai, China) assay. Cells were seeded in 96‐well plates at a density of 2×10^3 cells to allow for attachment. After treatment with ZQJ29 (0.001, 0.01, 0.1, 10, and 25 µM) for 24, 48, and 72 h, 10 µL of CCK‐8 solution was added to each well and incubated for 1 h. The optical density values were then measured at 450 nm using a multifunctional enzyme‐linked immunosorbent assay reader (Tecan, Spark, Switzerland).
On the technique in general: Tetrazolium assays rely on reduction of a dye to a coloured formazan, in cell work by metabolically active cells.

The subject of the next data set is HPDE6-C7. As to the kind of experiment: CCK-8 cytotoxicity assay, HPDE6-C7 (normal cell line). The class given is cell-based. Particulars: HPDE6c7, 72 h. How it is done: as §1
The next data set has as its system THLE-2. Nature of the data set: CCK-8 cytotoxicity assay, THLE-2 (normal cell line). The format is cell-based. As to conditions: Homo sapiens, 72 h. How it is done:
as §1

Data set [2] has as its target T1, PARP1 (Homo sapiens, UniProt P09874). Nature of the data set: SPR analysis (Biacore S200). The format is binding. Details: purchased Sino Biological 11040‐H08B. As to conditions: 25 °C, Steady State Affinity model. How it is done: The interaction between ZQJ29 and PARP1 was assessed by SPR with the Biacore S200 system at 25 °C (Cytiva). Recombinant human PARP1 protein (Sino Biological, 11040‐H08B) was immobilized on an activated carboxymethylated 5 (CM5) sensor chip using the amine coupling method. Gradient concentrations of 3 were injected at a flow rate of 40 µL min^−1 in a running buffer [5% (v/v) DMSO in PBS·P]. The results were analyzed with the Biacore evaluation software (S200 version). Data were fitted to the Steady State Affinity model, and kinetic parameters were derived.
A general note: Surface plasmon resonance follows binding to a sensor surface in real time, without labels.

Another data set relates to KP4. Nature of the data set: CCK-8 cytotoxicity assay, KP4. The format is cell-based. How it is done: as §1
The subject of a further data set is MCF. As to the kind of experiment: CCK-8 cytotoxicity assay, MCF. The format is cell-based. As to conditions: 72 h. How it is done: as §1
The subject of the next data set is HeLa. As to the kind of experiment: CCK-8 cytotoxicity assay, HeLa. The format is cell-based. As to conditions: Homo sapiens, 72 h. How it is done: as §1
For the next data set, the system named is LX2. As to the kind of experiment: CCK-8 cytotoxicity assay, LX2 (normal cell line). The format is cell-based. Particulars: Homo sapiens, LX-2, 72 h. How it is done: as §1
Data set [3] has as its system PANC-1 and KP4 cells. Nature of the data set: Colony formation assay. As to conditions: 0, 1, 2.5, 5 µM, concentration-dependent. The format is cell-based. How it is done:
The clonogenicity of pancreatic cancer cells was evaluated using a colony formation assay. PANC‐1 and KP4 cells were seeded into 6‐well plates at ≈200 cells per well in the conditional medium. The cells were treated with different concentrations of ZQJ29 (0, 1, 2.5, and 5 µM) for 24 h. After treatment, the drug‐containing medium was removed, and complete medium was added for an additional […] in a 37 °C incubator with 5% CO2. The plates were then washed with PBS and fixed with 4% paraformaldehyde. After staining with 0.5% crystal violet (Yeasen, Shanghai, China), the colonies were counted manually.

In a further data set the test system is KP4 cells. As to the kind of experiment: Cell cycle analysis (PI, flow cytometry), KP4. The class given is cell-based. Particulars: KP4, 24 h. How it is done:
PANC‐1 and KP4 cells were placed in 6 cm dishes and exposed to designated concentrations of ZQJ29 (1 µM) for 24 h before trypsinization. After centrifugation, the cells were secured and preserved in ice‐cold 70% ethanol and stored at 4 °C for 24 h. They were then thoroughly washed with PBS multiple times. Next, the fixed cells were incubated in PBS supplemented with RNase and PI solution for 30 min at 37 °C, protected from light exposure. Cell cycle progression was assessed using a flow cytometer. This experimental procedure was systematically conducted in three separate trials, with each trial done in triplicate. Cell cycle kits were obtained from Beyotime (Shanghai, China).
For orientation: A flow cytometer gives signals particle by particle.

Data set [4] relates to PANC-1 and KP4 cells. Nature of the data set: CCK-8 viability after PARP1 siRNA knockdown. As to conditions: PARP1-siRNA transfection, ZQJ29 1 µM, 24 h. The format is cell-based. How it is done:
as §1
A short interfering RNA (siRNA) targeting human PARP1 was designed and synthesized by GenePharma (Shanghai, China). The sequences of the siRNAs are detailed in Table S5 (Supporting Information). PANC‐1 and KP4 Cells were cultured in six‐well plates until they reached 70% confluence. The cells were then transfected with 50 nM siRNA‐PARP1 or a negative control with Lipofectamine 2000 (Thermo Fisher, USA) for 24 h, according to the manufacturer's instructions.

In data set [5] the target is T1, PARP1. As to the kind of experiment: CETSA. The class given is binding. Set-up: Total cellular proteins from PANC‐1 and KP4 were extracted using M‐PER lysis buffer; endogenous in cells; host or cells: PANC-1 and KP4 pancreatic cancer cells. How it is done: PANC‐1 and KP4 cells were treated with M‐PER lysis buffer to lyse the cells. The resulting protein extracts were divided into two parts. One part was treated with 50 µM ZQJ29, while the other received an equal amount of DMSO. Both mixtures were incubated on ice for 1 h. The samples were then divided into 100 µL PCR tubes and exposed to a range of temperatures starting at 45 °C. After cooling and centrifugation, 5 × SDS loading buffers were added to the supernatant. The samples were then heated to 95 °C for 10 min and analyzed SDS‐PAGE followed by Western blotting.

T1 sequence (P09874 whole entry): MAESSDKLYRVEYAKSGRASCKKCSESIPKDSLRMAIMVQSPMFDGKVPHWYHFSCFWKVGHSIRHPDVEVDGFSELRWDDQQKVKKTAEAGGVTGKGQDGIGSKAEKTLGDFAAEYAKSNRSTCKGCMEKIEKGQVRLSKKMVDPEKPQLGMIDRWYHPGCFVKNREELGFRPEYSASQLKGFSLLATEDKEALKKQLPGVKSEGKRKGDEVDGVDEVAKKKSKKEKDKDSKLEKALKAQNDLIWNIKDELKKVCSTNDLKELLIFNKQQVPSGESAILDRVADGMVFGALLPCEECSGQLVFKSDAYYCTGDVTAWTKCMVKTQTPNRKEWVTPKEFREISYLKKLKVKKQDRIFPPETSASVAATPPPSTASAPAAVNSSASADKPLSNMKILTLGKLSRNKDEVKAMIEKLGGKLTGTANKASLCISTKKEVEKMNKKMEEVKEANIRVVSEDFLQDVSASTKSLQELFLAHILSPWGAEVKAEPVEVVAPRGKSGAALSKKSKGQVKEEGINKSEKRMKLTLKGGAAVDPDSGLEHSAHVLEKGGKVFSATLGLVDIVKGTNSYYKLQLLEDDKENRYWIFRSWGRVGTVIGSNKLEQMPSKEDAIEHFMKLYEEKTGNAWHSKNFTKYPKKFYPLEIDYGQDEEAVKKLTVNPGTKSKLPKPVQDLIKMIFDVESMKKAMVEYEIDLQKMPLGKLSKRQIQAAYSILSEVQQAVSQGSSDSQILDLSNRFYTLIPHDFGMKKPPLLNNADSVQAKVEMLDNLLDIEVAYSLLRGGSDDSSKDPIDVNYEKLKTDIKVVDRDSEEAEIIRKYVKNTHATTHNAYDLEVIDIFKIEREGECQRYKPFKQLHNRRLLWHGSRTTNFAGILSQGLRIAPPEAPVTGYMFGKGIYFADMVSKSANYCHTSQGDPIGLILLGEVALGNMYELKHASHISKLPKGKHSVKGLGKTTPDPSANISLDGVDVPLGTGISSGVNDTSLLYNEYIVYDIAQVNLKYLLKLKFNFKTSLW

`CC1CCC2C(C)C(OCCN(C#N)CCOC3OC4OC5(C)CCC6C(C)CCC(C3C)C46OO5)OC3OC4(C)CCC1C32OO4` (centres unmarked) [ZQJ29]: the “intracellular ROS, iron, MDA and GSH levels” value in the data set with PANC-1 and KP4 cells [1] is “increased ROS release, iron accumulation, MDA production, and GSH depletion”. In addition, the IC50 in the data set with PANC-1 (Homo sapiens, PANC-1, 72 h, average of 3 parallel tests) was 120 ± 30 nM; in the data set on HPDE6-C7, greater than 10000 nM; in the data set on THLE-2, greater than 10000 nM; in the data set with KP4 (Homo sapiens, KP-4, KP4, as printed in the text), 885 ± 106 nM; in the data set with MCF it was 759 ± 311 nM; in the data set on HeLa it was 1280 ± 289 nM. In the data set on LX2, the IC50 is greater than 10000 nM. Moreover, the “increased cytotoxicity compared to OXA and DHA” value in the data set with PANC-1 (PANC-1 cells) is “≈ 100 fold”. At PARP1 [2], this molecule yielded a Kd of 2860 nM. Also, in the data set with KP4 (KP4 cells), the “enhanced cytotoxic effect compared to OXA and DHA” value was determined as 10 fold. In addition, in the data set with KP4 (discussion, cell line not stated), the “potency of antitumor over DHA” value was 10 fold. In addition, the colony formation result in the data set on PANC-1 and KP4 cells [3] is listed as “significantly inhibited”. Moreover, in the data set on KP4 cells, the cell cycle arrest entry is given as “remarkable G2/M phase arrest”. The “proliferation inhibition by ZQJ29 upon PARP1 knockdown” value in the data set with PANC-1 and KP4 cells [4] is on record as “markedly reversed”. Also, the “PARP1 accumulation (thermal stability)” value on PARP1 [5] (PANC-1 and KP4 lysates, 50 µM ZQJ29, 45 to 70 °C) is reported as “significantly increased”. Also, the “PARP1 stability at 60 °C” value at PARP1 [5] (cell lysates, increasing ZQJ29 concentrations) is “enhanced”.

Broadly, the IC50 is the concentration that inhibits the measured activity by half. Higher therefore signals a need for much substance. For orientation: Kd means the free concentration of one partner at which half of the binding sites on the other are occupied at equilibrium, for simple one-to-one binding. Higher therefore signals a looser complex.
